Experimental data from ChEMBL document CHEMBL1201862, “PubChem BioAssay data set” (2004).
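Results reflect a 48-hour exposure of cells in 96-well plates to compound at five concentrations. GI50 marks 50% less growth.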 Calls of active or inactive are those of the source. Cut-off read from the data, not from the text of the source: active = GI50 up to about 1.1 µM and inactive = higher.

What was measured:
Assay in all cases: growth of human tumour cells (NCI), 48 h
NCI-H460 = tested on: NCI-H460
UO-31 = tested on: UO-31
DMS-273 = tested on: DMS-273
ACHN = tested on: ACHN
MOLT-4 = tested on: MOLT-4
BT-549 = tested on: BT-549
Malme-3M = tested on: Malme-3M
PC-3 = tested on: PC-3
OVCAR-8 = tested on: OVCAR-8
HT-29 = tested on: HT-29
M19-MEL = tested on: M19-MEL
LOX IMVI = tested on: LOX IMVI
A498 = tested on: A498
SNB-78 = tested on: SNB-78
KM12 = tested on: KM12
SF-295 = tested on: SF-295
HCT-15 = tested on: HCT-15
UACC-257 = tested on: UACC-257
HCT-116 = tested on: HCT-116
DU-145 = tested on: DU-145
IGROV-1 = tested on: IGROV-1
RPMI-8226 = tested on: RPMI-8226
NCI-H226 = tested on: NCI-H226
KM-20L2 = tested on: KM-20L2
786-0 = tested on: 786-0
SF-539 = tested on: SF-539
HOP-18 = tested on: HOP-18
NCI-H23 = tested on: NCI-H23
RXF 393 = tested on: RXF 393
TK-10 = tested on: TK-10
U-251 = tested on: U-251
SK-MEL-5 = tested on: SK-MEL-5
MDA-MB-231 = tested on: MDA-MB-231
RXF 631 = tested on: RXF 631
OVCAR-5 = tested on: OVCAR-5
SR = tested on: SR
M14 = tested on: M14
SW-620 = tested on: SW-620
NCI/ADR-RES = tested on: NCI/ADR-RES
HOP-92 = tested on: HOP-92
SK-MEL-2 = tested on: SK-MEL-2
SK-MEL-28 = tested on: SK-MEL-28
OVCAR-3 = tested on: OVCAR-3
HCC 2998 = tested on: HCC 2998
NCI-H522 = tested on: NCI-H522
CAKI-1 = tested on: CAKI-1
HOP-62 = tested on: HOP-62
CCRF-CEM = tested on: CCRF-CEM
XF498 = tested on: XF498
HL-60 = tested on: HL-60
COLO 205 = tested on: COLO 205
SK-OV-3 = tested on: SK-OV-3
K562 = tested on: K562
SNB-19 = tested on: SNB-19
T47D = tested on: T47D
A549 = tested on: A549
OVCAR-4 = tested on: OVCAR-4
EKVX = tested on: EKVX
UACC-62 = tested on: UACC-62
MDA-MB-435 = tested on: MDA-MB-435
SF-268 = tested on: SF-268
SN12C = tested on: SN12C
SNB-75 = tested on: SNB-75
MDA-N = tested on: MDA-N
MCF7 = tested on: MCF7
DMS-114 = tested on: DMS-114
Hs-578T = tested on: Hs-578T
DLD-1 = tested on: DLD-1
LXFL 529 = tested on: LXFL 529

Measured: GI50

CN1C(=O)CC2(C)c3cc(O)ccc3N(C)C12 (centres undefined)
inactive: NCI-H460 50.9 µM | UO-31 > 71.8 µM | DMS-273 > 100 µM | ACHN 63.2 µM | MOLT-4 19.3 µM | BT-549 16.9 µM | Malme-3M 54.5 µM | PC-3 41.5 µM | OVCAR-8 30.8 µM | HT-29 30.5 µM | M19-MEL 11.5 µM | LOX IMVI 17.1 µM | A498 43 µM | SNB-78 > 67.3 µM | KM12 31.3 µM | SF-295 29.8 µM | UACC-257 > 68.2 µM | HCT-116 19.9 µM | DU-145 > 40.4 µM | IGROV-1 46.6 µM | RPMI-8226 31 µM | NCI-H226 40.6 µM | KM-20L2 > 100 µM | 786-0 15 µM | SF-539 64.1 µM | HOP-18 > 100 µM | NCI-H23 42.3 µM | RXF 393 29.4 µM | TK-10 > 90.4 µM | U-251 19.2 µM | SK-MEL-5 22.5 µM | MDA-MB-231 19.5 µM | RXF 631 > 100 µM | OVCAR-5 42.5 µM | SR 18.5 µM | M14 27.2 µM | SW-620 20 µM | NCI/ADR-RES 39.4 µM | HOP-92 56.9 µM | SK-MEL-2 41.5 µM | SK-MEL-28 50.7 µM | OVCAR-3 19.6 µM | HCC 2998 > 100 µM | NCI-H522 43.3 µM | CAKI-1 23.8 µM | HOP-62 41 µM | CCRF-CEM 13.2 µM | XF498 17.3 µM | HL-60 21.2 µM | COLO 205 36.8 µM | SK-OV-3 > 95.3 µM | K562 18.5 µM | SNB-19 46.9 µM | T47D 31.8 µM | A549 > 68.5 µM | OVCAR-4 5.45 µM | EKVX 37.8 µM | UACC-62 20.1 µM | MDA-MB-435 13.6 µM | SF-268 27 µM | SN12C 15.5 µM | SNB-75 30.8 µM | MDA-N 17.6 µM | MCF7 18.6 µM | DMS-114 38.9 µM | Hs-578T > 48.9 µM | DLD-1 > 89.3 µM | LXFL 529 27.8 µM
36 µM: HCT-15
